Results as given in patent US20250186489A1, “REPROGRAMMING OF CELLS TO TYPE 1 CONVENTIONAL DENDRITIC CELLS OR ANTIGEN-PRESENTING CELLS” (Asgard Therapeutics AB, priority 2021, published 2025).

What was measured:
LLC and B16 cells = experiment: Effect of valproic acid on reprogramming of mouse cancer cells; assay type: cell-based; details: for fold enhancement of CD45^+ MHC-II^+ tumour-APC generation: SFFV-PIB-eGFP; for fold enhancement of CD45^+ MHC-II^+ tumour-APC generation / CD45^+ MHC-II^+ tumour-APCs: day 9
Description: (§1) Cancer cell lines were transduced with PIB-IRES-EGFP lentiviral particles or EGFP as control, and cultured in the presence or absence of VPA from reprogramming day 1 to day 4, and reprogramming efficiency was quantified by flow cytometry at reprogramming day 9 in live EGFP^+ cells according to the surface expression of CD45^+ and MHC-II or HLA-DR. Reprogrammed cells were then analysed as previously described.

human cancer cell lines = experiment: Effect of valproic acid on cDC1 reprogramming of human cancer cell lines; assay type: cell-based; details: VPA from day 1 to day 4, day 9
Description: as §1

B16-OVA cells = experiment: T cell killing assay of B16-OVA target cells; assay type: cell-based, mouse; details: low (1:1) T cell to target ratio, 3 days co-culture
Description: CD8^+ T cells from spleen of OT-I mice were enriched using a mouse CD8^+ T cell isolation kit (Miltenyi) according to manufacturer's protocol. 6-well untreated plates were coated with anti-CD3 and anti-CD28 at 2×10^−3 mg mL^−1 for 2 h at 37° C. and washed 3× before 1×10^6 T cells per mL were seeded in complete growth media (RPMI) supplemented with murine IL-2 (Peprotech, 100 U mL-1) and murine IL-12p70 (Peprotech, 2.5×10−3 mg mL-1). After 24 h of activation, T cells were re-seeded at 1×10^6 cells per mL in fresh complete RPMI supplemented with murine IL-2 for 48 h on new untreated plates to allow T cell expansion. MACS-sorted reprogrammed mOrange^+ B16-OVA cells or IFN-γ treated cells were seeded with non-fluorescent B16-OVA (mOrange−) in equal numbers, 24 h before co-culture with T cells. Expanded T cells were added in ratios of 0:1, 1:1, 5:1, 10:1 T cell to target cell. […] For flow cytometry analysis, cells were resuspended and stained for viability (DAPI) and anti-CD3 and measured at indicated time points post co-culture with T cells.

[1] = tested on: human embryonic fibroblasts (HEF); experiment: cDC1 reprogramming efficiency of human embryonic fibroblasts, flow cytometry for CD45+HLA-DR+ cells at day 9; assay type: cell-based; details: HEF with Dox-inducible PIB
Description: HEFs, HDFs and Clec9a-tdTomato MEFs were seeded at a density of 40,000 cells per well and MSCs at a density of 50,000 cells per well on 0.1% gelatin coated 6-well plates. On the following day, cells were incubated overnight with either a ratio of 1:1 TetO-PIB and M2rtTA, SFFV-PIB-GFP or SFFV-GFP lentiviral particles in media supplemented with 8 μg/ml polybrene. Cells were transduced overnight twice in consecutive days and media replaced in between. After the second transduction, media was replaced by normal growth media (day 0). When using TetO-PIB, media was supplemented with Dox (1 μg/ml). Media was changed every 2-3 days for the duration of cultures. When stated, media was supplemented with LPS (100 ng/ml, Enzo), Poly I:C (25 μg/ml, InvivoGen) and R848 (3 μg/ml, InvivoGen) overnight. Cytokines were added at day 2 and kept for the duration of cultures; For reprogramming in xeno-free conditions, MSCs were cultured in X-Vivo 15 (Lonza) after transduction and media changed every 2-3 days for the duration of cultures.
For the analysis of surface marker expression, human and mouse cells were dissociated and incubated with antibodies diluted in PBS 5% FBS at 4° C. for 30 minutes in the presence of mouse or rat serum (1/100, GeneTex), for human and mouse cells respectively, to block unspecific binding. Cells were washed and resuspended in PBS 5% FBS and analyzed in BD FACSCanto II or BD LSRFortessa flow cytometers (BD Biosciences), unless stated otherwise. DAPI was used for dead cell exclusion. Flow cytometry data were analyzed using FlowJo software (FLOWJO, LLC, version 10.6.1). All flow cytometry analyses were performed in live single cell gates.
Coding regions of ID2, TXNIP, ZFP36, PLEK, SUB1, JUNB, CREM, KLF4, MXD1, LITAF, IRF7, FOS, NMI, TFEC, SP110, IRF5, STAT2, BATF, ZNF267, IRF1, RELB and BATF2 were individually cloned in the pFUW-TetO plasmid. […] Reprogramming efficiency was evaluated by flow cytometry in HEFs 9 days after transcription factor overexpression.
17 human hematopoietic cytokines including inflammatory mediators (Table 3) were individually added to the culture media 2 days after PIB induction in HEFs, and reprogramming efficiency was measured at day 9. Changes in reprogramming efficiency were analysed using both single cytokines and combinations of two or three cytokines.
The impact on reprogramming efficiency after a combination of cytokine treatment and SFFV-driven PIB induction was evaluated. The scPred system was used for integration with “natural” DCs. See previous Examples for experimental details.

chromatin = experiment: ChIP-seq of PU.1, IRF8 and BATF3 in HDFs 48 h after induction; assay type: binding, human; details: for chromatin binding, number of peaks: factors co-expressed, HDFs, 48 h; for positions shared between the three factors as share of total peaks of the factor: factors expressed together
Description: TFs were delivered with a polycistronic lentiviral vector (pFUW-tetO-PIB) or individual vectors (pFUW-tetO-PU.1, pFUW-tetO-IRF8, or pFUW-tetO-BATF3) with pFUW-M2rtTA. ChIP was performed 48 hours after the addition of Dox.
Chromatin in cultured cells was fixed by adding 1/10 volume of freshly-prepared formaldehyde solution [11% Formaldehyde (Sigma), 0.1M NaCl, 1 mM EDTA and 50 mM HEPES] to each cell suspension in complete DMEM. Tubes were left 15 minutes at room temperature with agitation. Fixation was stopped by adding 1/20 volume of […] Glycine solution (Sigma). After 5 minutes incubation, cells were centrifuged at 800 g for 10 min at 4° C. Cell pellets were resuspended in 10 ml chilled PBS-Igepal, 100 μl PMSF were added to each tube and centrifuged at 800 g for 10 minutes at 4° C. Cell pellets were snap-frozen on dry ice and stored at −80° C. Active Motif (Carlsbad, CA) prepared chromatin, performed ChIP, generated libraries and sequenced libraries. Briefly, chromatin was isolated by adding lysis buffer, followed by disruption with a Dounce homogenizer. Lysates were sonicated and the DNA sheared to an average length of 300-500 bp (Active Motif's EpiShear probe sonicator). Genomic DNA (Input) was prepared by treating aliquots of chromatin with RNase, proteinase K and heat for de-crosslinking, followed by clean up using solid phase reversible immobilization (SPRI) beads (Beckman Coulter) and quantitation by Clariostar (BMG Labtech). Extrapolation to the original chromatin volume allowed determination of total chromatin yield. 30 μg of chromatin was pre-cleared with protein A/G agarose beads (Invitrogen). Immunoprecipitations were performed with 4 μg of antibodies against human PU.1, IRF8 and BATF3 (rabbit anti-human PU.1, rabbit anti-human IRF8 or sheep anti-human BATF3). […] To confirm ChIP enrichment, quantitative PCR (QPCR) reactions were carried out in triplicate on specific genomic regions using SYBR Green Supermix (Bio-Rad). […] After a final PCR amplification step, the resulting DNA libraries were quantified and sequenced on Illumina's NextSeq 500 (75 nt reads, single end).
ChIP-seq analysis was performed on the raw FASTQ files. […] For genome tracks, bigwig files were created from bam files with deeptools (https://deeptools.readthedocs.io/en/develop/) and explored using the UCSC Genome Browser. For Chromatin State Fold-Enrichment analysis, enrichment scores for genomic features, such as PU.1, IRF8 and BATF3 ChIP-seq peaks and histone marks were calculated using ChromHMM Overlap Enrichment (http://compbio.mit.edu/ChromHMM/). […] Enrichment scores were calculated as the ratio between the observed and the expected overlap for each feature and chromatin state based on their sizes and the size of the human genome. […]

**Q.** With CCCC(CCC)C(=O)O [VPA, valproic acid] as the molecule, how does the “fold enhancement of CD45^+ MHC-II^+ tumour-APC generation” value (LLC and B16 cells; B16 cells) read?
**A.** Its value is about 5 fold.

**Q.** What about the “CD45^+ MHC-II^+ tumour-APCs” value (LLC and B16 cells; B16 cells, 5.9±4.8% without VPA) of the same molecule?
**A.** The value was 29.9±19.3%.

**Q.** And the “MHC-I in transduced cells” value (LLC and B16 cells; LLC and B16 cells transduced with PIB)?
**A.** Its value is “upregulate MHC-I”.

**Q.** What about the “fold enhancement of CD45^+ MHC-II^+ tumour-APC generation” value (LLC and B16 cells; LLC cells) of the same molecule?
**A.** Its value is about 3 fold.

**Q.** What about the “CD45^+ MHC-II^+ tumour-APCs” value (LLC and B16 cells; LLC cells, 15.8±4.79% without VPA) of the same molecule?
**A.** Its value is 45.9±25.5%.

**Q.** What about the “antigen presentation function of tumour-APCs generated in the presence of VPA” value (LLC and B16 cells; LLC-OVA and B16-OVA cells, OT-I CD8^+ T cells) of the same molecule?
**A.** Its value is “presented endogenous antigens to OT-I CD8^+ T cells”.

**Q.** What about the “reprogramming efficiency in human cancer cells” value (human cancer cell lines) of the same molecule?
**A.** The value was “increased reprogramming efficiency in all tested lines”.

**Q.** Which “target cells killed by T cells” value (B16-OVA cells) does the source give for IFN-γ: cytokine here?
**A.** Its value is 12.31±7.1%.

**Q.** What about the “fold increase in reprogramming efficiency versus condition without cytokines” value [1] of the same molecule?
**A.** The value was 20 fold.

**Q.** And the “CD45^+ HLA-DR^+ cell generation (hiDCs)” value ([1]; cytokine added 2 days after induction, 0.4%±0.2% without cytokines)?
**A.** Its value is 7.9%±2.2%.

B1: BATF3: nuclear basic leucine zipper transcription factor, SEQ ID NO: 10 (protein, listed as Homo sapiens)
chain: MSQGLPAAGSVLQRSVAAPGNQPQPQPQQQSPEDDDRKVRRREKNRVAAQRSRKQTQKADKLHEEYESLEQENTMLRREIGKLTEELKHLTEALKEHEKMCPLLLCPMNFVPVPPRPDPVAGCLPR
modifications: Human BATF3 (protein sequence)
**Q.** Which results are given for B1?
**A.** chromatin binding, number of peaks (chromatin): 11,505 peaks; positions shared between the three factors as share of total peaks of the factor (chromatin): 47%

B2: IRF8: transcription factor of the interferon regulatory factor family, SEQ ID NO: 11 (protein, listed as Homo sapiens)
chain: MCDRNGGRRLRQWLIEQIDSSMYPGLIWENEEKSMFRIPWKHAGKQDYNQEVDASIFKAWAVFKGKFKEGDKAEPATWKTRLRCALNKSPDFEEVTDRSQLDISEPYKVYRIVPEEEQKCKLGVATAGCVNEVTEMECGRSEIDELIKEPSVDDYMGMIKRSPSPPEACRSQLLPDWWAQQPSTGVPLVTGYTTYDAHHSAFSQMVISFYYGGKLVGQATTTCPEGCRLSLSQPGLPGTKLYGPEGLELVRFPPADAIPSERQRQVTRKLFGHLERGVLLHSSRQGVFVKRLCQGRVFCSGNAVVCKGRPNKLERDEVVVFDTSQFFRELQQFYNSQGRLPDGRVVLCFGEEFPDMAPLRSKLILVQIEQLYVRQLAEEAGKSCGAGSVMQAPEEPPPDQVFRMFPDICASHQRSFFRENQQITV
modifications: Human IRF8 isoform 1 (protein sequence)
**Q.** How did the “chromatin binding, number of peaks” value (chromatin) turn out when B2 was run?
**A.** The value was 18,962 peaks.

**Q.** What about the “positions shared between the three factors as share of total peaks of the factor” value (chromatin) of the same molecule?
**A.** The value was 28%.
